Values belong to the compound of their own block, whether it stands above or below them.
Legend:
[1] = system: IKZF1 (Ikaros), IKZF3 (Aiolos); test: Immunoblot of IKZF1 and IKZF3 expression; format: cell-based; conditions: BC-3 and BCBL-1, MLN4924 pretreatment 1 h then IMiDs 15 h
Method: (§2) Cells were lysed in lysis buffer containing 20 mM sodium phosphate (pH 7.4), 150 mM NaCl, 0.1% Triton X-100, 0.2 M PMSF, and 10% glycerol supplement with a protease inhibitor mixture tablet (Roche). Whole cell extracts were resolved by SD-polyacrylamide gel electrophoresis, transferred to nitrocellulose membrane, and probed with the indicated primary antibodies. Bound antibodies were detected with IRdye 680 or 800 (Licor biosciences) and blots were scanned with licor odyssey CLx imaging system (Licor biosciences). Primary antibodies used in these experiments were from the following sources: PARP (9542), NF-κB2 (p100/p52; 4882) from Cell Signaling; IRF4 (6059), IKZF1 (13039), HSP90 (69703), IKKα/β (7607), RELB (226) from Santa Cruz Biotechnology; MYC (1472-1, Epitomics); tubulin (T9026), cereblon (HPA045910) from Sigma; GAPDH (1107018, Ambion), IKZF3 (6255, Imgenex) and BRD4 (a gift from Dr. Peter Howley, Harvard Medical School).

[2] = system: PEL cell lines; test: Cell viability, MTS assay; format: cell-based; conditions: for PEL cell lines sensitive within physiologically achievable doses: 7 PEL cell lines, increasing concentrations; for sensitivity of the 5 PEL cell lines to recombinant IFN: BC-3, BCBL-1, JSC-1, BC-1 and VG-1, 5 days
Method: (§1) Cells from exponentially growing cultures were plated in untreated flat-bottom 96 well plates at a density of 5×10^3 cells/well, treated with an increasing concentration of the drugs and subsequently assessed for cell viability using the MTS reagent (3-4,5-dimethylthiazol-2yl)-5-(3-carboxy-methoxyphenyl)-2-(4-sulfophenyl)-2H-tetrazolium, inner salt) following the manufacturer's instructions (Promega). Percent cell survival was calculated based on the reading of cells grown in the presence of DMSO control. Experiments were performed in triplicate and have been repeated 2-3 times.

[3] = system: IL-6; test: IL-6 ELISA in supernatants of BC-3 cells; format: cell-based, Human; conditions: 12, 24 and 48 h
Method: IL-6 was measured in supernatants using BD OptEIA™ Human IL-6 ELISA set as per manufacturer's instructions.

[4] = system: IKKα/β, p100/p52 and RELB; test: Immunoblot of NF-κB proteins; format: cell-based; conditions: BC-3, BCBL-1, JSC-1 and DG-75 cells, increasing doses
Method: as §2

[5] = system: PEL cells; test: Real-time qRT-PCR of mRNA expression; format: cell-based
Method: Real-time quantitative reverse transcript-polymerase chain reaction (qRT-PCR) was performed with SYBR Green using gene-specific PCR primers. Samples were run in triplicate, and PCR was performed by an ABI Step One Plus thermocycler (Applied Biosystems). GAPDH was used as housekeeping gene and qRT-PCR data (Ct values) was analyzed using the 2^−ΔΔCT method as described earlier (Zhao et al., 2007). The qRT-PCR data was presented as fold change in target gene expression±standard error.

[6] = system: BC-3 cells; test: PEL orthotopic tumor model; format: in vivo, NOD.SCID mice; set-up: dose or concentration left out as unconfirmed; conditions: once daily for 28 days, intraperitoneally
Method: A total of 2×10^7 BC-3 cells were injected intraperitoneally into female NOD.SCID mice (NCI Frederick, 6 weeks old). 5 days after tumor cells inoculation the mice were randomly divided in to 4 groups (n=7 each). […] (once daily), JQ-1 50 mg/kg b.w. (once daily) and the combination were administered intraperitoneally daily for 28 days. Then the animals were monitored for survival. Body weight gain was measured once in 3 days as a surrogate measure of tumor progression (Qin et al., 2014). The experiments were performed following the guidelines of institutional animal ethics committee.

[7] = system: PEL; conditions: treated for 18 months so far (Antar et al., 2014); cited from earlier work
[8] = system: BC-3 and BCBL-1 cells; test: Genome-wide microarray analysis; conditions: 5 μM, 24 h
Method: Two technical replicates per cell line per condition (8 samples total) were assayed on the Illumina Human HT12 BeadChip whole genome expression microarray, with coverage of 39809 coding transcripts and 3961 non-coding transcripts. Probe intensities were extracted directly from binary IDAT files using the ‘illuminaio’ package (Smith et al., 2013). Background correction and normalization was then performed using ‘limma’ package (Smyth, 2005). An estimate of the fraction of probes with detectable expression (approximately 47% of the probes present on the array) was extracted by comparing the negative control probe intensities with hybridization probe intensities; probes failing this cutoff were filtered from further analysis. An empirical Bayes linear model including treatment and cell-line specific effects was fitted to the filtered data, again using ‘limma’. […] Hierarchial clustering with Euclidean distance and centroid linkage was performed in R (http://www.R-project.org). A heat map of differences (corrected for cell-line-specific effects) was plotted.

[9] = system: BC-3 and BCBL-1 cells; test: Combination index (Chou and Talalay, calcusyn), MTS viability; format: cell-based; conditions: low doses, 12 combinations each, all combination doses tested
Method: as §1

[10] = system: panel of hematological cancer cell lines; test: Cell viability, MTS assay, panel of hematological cancer cell lines; format: cell-based; conditions: 5 days, increasing concentrations
Method: as §1

[11] = system: BJAB cells; test: Cell viability, MTS assay; format: cell-based; conditions: 5 days
Method: as §1

[12] = target: cereblon (CRBN) (Homo sapiens, UniProt Q96SW2); conditions: 48 h
Sequence of cereblon (CRBN) (Q96SW2 whole entry): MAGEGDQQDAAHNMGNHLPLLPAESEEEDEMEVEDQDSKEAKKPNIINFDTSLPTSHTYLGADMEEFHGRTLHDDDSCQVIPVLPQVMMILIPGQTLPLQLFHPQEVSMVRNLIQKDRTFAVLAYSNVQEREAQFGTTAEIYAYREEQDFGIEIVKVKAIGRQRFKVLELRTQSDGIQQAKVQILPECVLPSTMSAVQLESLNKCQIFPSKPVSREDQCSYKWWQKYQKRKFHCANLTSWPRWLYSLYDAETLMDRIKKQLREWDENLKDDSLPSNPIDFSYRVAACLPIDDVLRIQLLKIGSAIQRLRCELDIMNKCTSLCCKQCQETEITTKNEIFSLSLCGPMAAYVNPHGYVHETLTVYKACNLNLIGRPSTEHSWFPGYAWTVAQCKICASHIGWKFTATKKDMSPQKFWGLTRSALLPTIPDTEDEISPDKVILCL
Method: Cells were lysed in lysis buffer containing 20 mM sodium phosphate (pH 7.4), 150 mM NaCl, 0.1% Triton X-100, […], and 10% glycerol supplement with a protease inhibitor mixture tablet (Roche). Whole cell extracts were resolved by SD-polyacrylamide gel electrophoresis, transferred to nitrocellulose membrane, and probed with the indicated primary antibodies. Bound antibodies were detected with IRdye 680 or 800 (Licor biosciences) and blots were scanned with licor odyssey CLx imaging system (Licor biosciences).

[13] = BC-3, BCBL-1 and JSC-1, 5 μM, 24 h

Compound: NS(=O)(=O)OC[C@@H]1C[C@@H](n2ccc3c(N[C@H]4CCc5ccccc54)ncnc32)C[C@@H]1O [MLN4924]
effect on downregulation of IKZF1 by IMiDs [1]: completely blocked

Compound: Nc1cccc2c1CN(C1CCC(=O)NC1=O)C2=O (stereo not shown) [lenalidomide]
PEL cell lines sensitive within physiologically achievable doses ([2]; 5 days): 5/7 | IL-6 secretion by BC-3 cells [3]: did not have any significant effect | expression of IKKα/β, p100/p52 and RELB proteins [4]: did not have any significant effect | mRNA levels of IKZF1 [5, 13]: moderately up-regulated | mRNA levels of IRF4, MYC and its target TERT [5, 13]: down-regulated mildly, and moderately | transcript levels of IFNs and interferon specific genes (ISGs) ([5]; BCBL-1 cells, 5 μM, 24 hours): upregulated | median survival [6]: 35 days | outcome of elderly HIV-negative, KSHV-positive PEL patient [7]: without any symptoms or evidence of disease progression | downregulated genes [8]: 390 genes | upregulated genes [8]: 602 genes | genes whose expression changed significantly (pFDR<0.05) ([8]; both cell lines): 992 genes

Compound: COc1ccccc1S(=O)(=O)Nc1ccc2c(c1)CN(C)C(=O)N2 [PFI-1]
synergy of lenalidomide with BRD4 inhibitor (combination index) [9]: highly synergistic

Compound: O=C1CCC(N2C(=O)c3ccccc3C2=O)C(=O)N1 (stereo not shown) [thalidomide]
effect on the growth of the cell lines [10]: did not have any major effect

Compound: IFN-γ: recombinant interferon γ
effect of recombinant IFN on BJAB [11]: without any significant effect | sensitivity of the 5 PEL cell lines to recombinant IFN [2]: sensitive

Compound: COc1cc2c(cc1-c1c(C)noc1C)ncc1[nH]c(=O)n([C@H](C)c3ccccn3)c12 [IBET151]
synergy of lenalidomide with BRD4 inhibitor (combination index) [9]: highly synergistic

Compound: IFN-α
effect of recombinant IFN on BJAB [11]: very little effect | sensitivity of BC-3, BCBL-1 and JSC-1 to recombinant IFN ([2]; 5 days): highly sensitive | sensitivity of the 5 PEL cell lines to recombinant IFN [2]: sensitive

Compound: Cc1sc2c(c1C)C(c1ccc(Cl)cc1)=N[C@@H](CC(=O)OC(C)(C)C)c1nnc(C)n1-2 [JQ-1]
synergy of lenalidomide with BRD4 inhibitor (combination index) [9]: highly synergistic | median survival [6]: 42 days

CRBN level in BCBL-1 cells [12]: no change | level of cereblon in BC-3 cells [12]: slight decrease
Compound: Nc1cccc2c1C(=O)N(C1CCC(=O)NC1=O)C2=O (stereo not shown) [pomalidomide]
PEL cell lines sensitive within physiologically achievable doses ([2]; 5 days): 6/7

Source: patent publication US9931332B2, “Compositions and methods for treating primary effusion lymphoma” (University of Southern California, priority 2014, dated 2018)
